Values joined by “and” are separate entries in the source; they are usually repeats but may differ in a detail not shown here. Identical values can stand only once. “Also recorded” adds a separate entry of the source.
Columns and labels:
PER117 cells = assay: CTG viability, PER117; type: cell-based, human; settings: for IC50: PER117 cells, replicate values
Protocol: (§1) After establishing the potency and selectivity of our lead CK1α degraders, we investigated their effect on a panel of AML and ALL cell lines (Fig. 3a).
(§2) The primary screen was performed in 384-well format using the CellTiter Glo (CTG) luminescent cell viability assay (Promega) as previously described. 3630 compounds from the St. Jude proprietary molecular glue library were screened against 9 human cancer cell lines (HD-MB03, MB004, MB002, MHH-CALL4, MOLM-13, TF-1, HEL, OCI-AML3, AML193). Each cell line was cultured in the complete medium recommended by the vendor and seeded in Corning 8804 BC white 384-well assay plates at densities of 1000, 1000, 1500, 7500, 1250, 156, 625, 1250, 1250 cells per well for HD-MB03, MB004, MB002, MHH-CALL4, MOLM-13, TF-1, HEL, OCI-AML, AML193, respectively. After overnight incubation at 37 °C in a humidified 5% CO2 incubator, cells were treated with compounds in dose–response format using a Pintool on a Biomek FX^P Laboratory Automation Workstation (Beckman Coulter). After 72 h of incubation, cell proliferation was assessed using a CellTiter-Glo (CTG) luminescent cell viability assay (Promega) according to the manufacturer’s instructions. Luminescence signal was measured using an EnVision plate reader (PerkinElmer).
HD-MB03 cell line was obtained from Drs. Milde, Witt and Deubzer[52]. HD-MB03 and MB004 cells were grown in a neurobasal medium supplemented with glutamine, streptomycin, penicillin, B27, EGF, bFGF, and heparin as previously described. MB002 and MB004 cells were obtained from Dr Yoon-Jae Cho[54]. MB002 cells were cultured in 80% neurobasal medium supplemented with glutamine, streptomycin, penicillin, B27, and 20% conditioned media from previous passages; EGF, bFGF, and heparin were also added to the medium. MHH-CALL4, NALM-16, MHH-CALL-2 cells were obtained from the German Collection of Microorganisms and Cell Cultures GmbH (DSMZ, Germany). PER-117 cells were obtained from Telethon Kids Institute (Perth, Australia). The cells were cultured in RPMI1640 medium supplemented with 10% FBS (Hyclone), Penicillin/Streptomycin (100 units/mL), and Glutamine (100 µM) except for MHH-CALL-2 cells where 20% FBS were used. MOLM-13 cells were obtained from DSMZ (ACC 554) and cultured in RPMI-1640 media (Gibco) supplemented with 20% FBS (R&D Systems) and 100 U/ml penicillin-streptomycin (Gibco). HNT-34 cells were purchased from DSMZ (ACC 600) and cultured in RPMI-1640 media supplemented with 20% FBS and 100 U/ml penicillin-streptomycin. Kasumi-3 cells were purchased from ATCC (CRL-2725) and cultured in RPMI-1640 media supplemented with 20% FBS and 100 U/ml penicillin-streptomycin. UCSD-AML1 cells were purchased from DSMZ (ACC 691) and cultured in RPMI-1640 media supplemented with 20% FBS, 100 U/ml penicillin–streptomycin, and 10 ng/ml human GM-CSF (PeproTech). […] OCI-AML3 cells were purchased from DSMZ (ACC 690) and cultured in Alpha-MEM media (Invitrogen) supplemented with 20% FBS and 100 U/ml penicillin–streptomycin. HEL cells were obtained from Dr. Charles Mullighan and cultured in RPMI-1640 media supplemented with 10% FBS and 100 U/ml penicillin-streptomycin. AML193 cells were purchased from DSMZ (ACC 549) and cultured in IMDM supplemented with 5% FBS, 100 U/ml penicillin–streptomycin, Insulin–Transferrin–Selenium (ITS-G, Gibco), and 5 ng/ml human GM-CSF. Cell identity was confirmed by STR profiling using PowerPlex® Fusion System (Promega).

UCSD-AML1 cells = assay: CTG viability, UCSD-AML1; type: cell-based, human; settings: for IC50: UCSD-AML cells, replicate values
Protocol: as §1, §2
HD-MB03 cell line was obtained from Drs. Milde, Witt and Deubzer[52]. HD-MB03 and MB004 cells were grown in a neurobasal medium supplemented with glutamine, streptomycin, penicillin, B27, EGF, bFGF, and heparin as previously described. MB002 and MB004 cells were obtained from Dr Yoon-Jae Cho[54]. MB002 cells were cultured in 80% neurobasal medium supplemented with glutamine, streptomycin, penicillin, B27, and 20% conditioned media from previous passages; EGF, bFGF, and heparin were also added to the medium. MHH-CALL4, NALM-16, MHH-CALL-2 cells were obtained from the German Collection of Microorganisms and Cell Cultures GmbH (DSMZ, Germany). PER-117 cells were obtained from Telethon Kids Institute (Perth, Australia). The cells were cultured in RPMI1640 medium supplemented with 10% FBS (Hyclone), Penicillin/Streptomycin (100 units/mL), and Glutamine (100 µM) except for MHH-CALL-2 cells where 20% FBS were used. MOLM-13 cells were obtained from DSMZ (ACC 554) and cultured in RPMI-1640 media (Gibco) supplemented with 20% FBS (R&D Systems) and 100 U/ml penicillin-streptomycin (Gibco). HNT-34 cells were purchased from DSMZ (ACC 600) and cultured in RPMI-1640 media supplemented with 20% FBS and 100 U/ml penicillin-streptomycin. Kasumi-3 cells were purchased from ATCC (CRL-2725) and cultured in RPMI-1640 media supplemented with 20% FBS and 100 U/ml penicillin-streptomycin. […]

[1] = Plasma protein binding assay (RED), human; type: in vitro ADME
Protocol: (§3) page 33: the need for further incubation. Following quenching, all plates were thoroughly mixed at 600 rpm for 10 minutes and centrifuged at 4000 rpm for 20 minutes. Supernatants were transferred to […] MS/MS analysis. Plasma stability was evaluated by determining the half-life through a least-squares fit of multiple time points based on first-order kinetics. Plasma protein binding assay: Test compound stock solutions were prepared at a concentration of 10 mM in DMSO. A Single-Use RED (Rapid Equilibrium Dialysis) device was acquired from Thermo Scientific (Cat. No: 99006, Rockford, IL). The sample preparation for plasma protein binding followed a modified version of Waters' method6. After thawing, plasma was centrifuged at 1000 rpm for 10 minutes to eliminate any particulates. Each compound was then prepared at a concentration of 10 µM in either human or mouse plasma. In the plasma protein binding assessment, 300 µL of spiked plasma solutions were introduced into the sample chamber (indicated by the red ring), while 550 µL of DPBS was added to the adjacent chamber. The plate was sealed and incubated at 37°C on an orbital shaker (100 rpm) for 4 hours. Post -incubation, 50 µL aliquots were withdrawn from each side of the insert and dispensed into a 96 -well storage plate. To create analytically identical sample matrices (matrix matching), an equivalent volume of blank plasma or DPBS was added to the necessary wells, followed by quenching w ith 3-fold (v:v) cold acetonitrile containing warfarin as the internal standard. Subsequently, the sealed plates were well -mixed at 600 rpm for 10 minutes and then centrifuged at 4000 rpm for 20 minutes. Supernatants were transferred to analytical […] Test compound concentrations were quantified in both the buffer and plasma chambers by determining peak areas relative to the internal standard. The percentage of the test compound bound to plasma was calculated using the following equation (4): %Free = (Concentration buffer chamber / concentration plasma chamber) x 100% and equation (5) %Bound = 100% - %Free.

[2] = Plasma protein binding assay (RED), mouse; type: in vitro ADME
Protocol: as §3

p21 = p21 immunoblotting in MOLM-13 cells; type: cell-based, human; settings: for p21 quantified protein expression (western blot): 3 western blots
[3] = time course 0-8 hrs, relative to no treatment
[4] = human plasma, single replicates
[5] = mouse plasma, single replicates

## Cc1cccc(C(=O)Nc2ccc3c(c2)CN(C2CCC(=O)NC2=O)C3=O)c1 (centres unmarked) [SJ0040]
PER117 cells; Homo sapiens
  IC50: 5 nM
PER117 cells
  IC50: 4.7 nM and 5.3 nM
UCSD-AML1 cells; Homo sapiens
  IC50: 3 nM
UCSD-AML1 cells
  IC50: 2.1 nM

## O=C1CCC(N2Cc3cc(Nc4noc5ccccc45)ccc3C2=O)C(=O)N1 (centres unmarked) [SJ3149]
PER117 cells; CTG
  Activity against PER117 cells: sub-nanomolar activity
PER117 cells; Homo sapiens
  IC50: 0.8 nM
PER117 cells
  IC50: 1.1 nM
[1]; human, plasma
  fraction unbound at 4 h, 10 µM: 0.023
[2]; mouse, plasma
  fraction unbound at 4 h, 10 µM: 0.038
p21; MOLM-13, 1 μM, 0-8 h
  p21 induction, time course: not present until 4 h; also recorded: does not occur until after 4 hours
p21; time 1 hr, relative to no treatment
  p21 quantified protein expression (western blot): 0.8518 and 1.28 and 0.8338
p21; time 2 hrs, relative to no treatment
  p21 quantified protein expression (western blot): 1.31 and 1.5551 and 1.213
p21; time 4 hrs, relative to no treatment
  p21 quantified protein expression (western blot): 4.341 and 2.673 and 4.158
p21; time 8 hrs, relative to no treatment
  p21 quantified protein expression (western blot): 4.765 and 2.907 and 5.628
p21; time course 0-8 hrs, X axis is time
  IC50 (line fit, sigmoidal 4PL) of p21 expression versus time: 3.071
p21; [3]
  Bottom (line fit, sigmoidal 4PL) of p21 expression versus time: 0.988
  Top (line fit, sigmoidal 4PL) of p21 expression versus time: 4.463
UCSD-AML1 cells; CTG
  Activity against UCSD-AML1 cells: sub-nanomolar activity
UCSD-AML1 cells
  IC50: 1 nM and 0.4 nM and 1.1 nM

## O=C1CCC(N2Cc3c(CNC(=O)c4ccc(F)cc4)cccc3C2=O)C(=O)N1 (centres unmarked) [SJ7095]
p21; MOLM-13, increasing concentrations, 4 h
  p21 protein levels: dose-dependent upregulation of p21

## O=C1CCC(N2Cc3cc(Nc4noc5ccccc45)ccc3C2=O)C(=O)N1 (centres unmarked) [SJ001043149-1]
[1]; human plasma, average of 3 replicates
  AVG %Bound: 97.7%
[1]; [4]
  %Bound: 97.5829% and 97.7158% and 97.77%
  %Free: 2.417% and 2.284% and 2.23%
[2]; mouse plasma, average of 3 replicates
  AVG %Bound: 96.2%
[2]; [5]
  %Bound: 96.641% and 95.489% and 96.3948%
  %Free: 3.359% and 4.511% and 3.605%

From paper PMC10791743, “Selective CK1α degraders exert antiproliferative activity against a broad range of human cancer cell lines” (Nature Communications, 2024)
